For experiment [1], the target named is T1, Human PDGFRα, cytoplasmic domain (GST-PDGFRα) (Homo sapiens, UniProt P16234).
T1 construct: made in house
Description: Human PDGFRα biochemical inhibition assay (off-chip Mobility Shift Assay).

Experiment [2] has as its target T2, Human PDGFRβ, cytoplasmic domain (GST-PDGFRβ) (Homo sapiens, UniProt P09619).
T2 construct: made in house
Description: Human PDGFRβ biochemical inhibition assay (off-chip Mobility Shift Assay). Summed up: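 GST-tagged cytoplasmic domain (aa 557-1106) from baculovirus was incubated 1 h at room temperature with compound, CSKtide, ATP at Km and Mg²⁺ in HEPES buffer, pH 7.5. Phosphorylated and unphosphorylated peptide were separated by off-chip mobility shift, and the product ratio P/(P+S) gave percent inhibition.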

A word on the IC50: it is the concentration needed to halve the response being measured.

T2 sequence (P09619 with tags, fused parts or gaps): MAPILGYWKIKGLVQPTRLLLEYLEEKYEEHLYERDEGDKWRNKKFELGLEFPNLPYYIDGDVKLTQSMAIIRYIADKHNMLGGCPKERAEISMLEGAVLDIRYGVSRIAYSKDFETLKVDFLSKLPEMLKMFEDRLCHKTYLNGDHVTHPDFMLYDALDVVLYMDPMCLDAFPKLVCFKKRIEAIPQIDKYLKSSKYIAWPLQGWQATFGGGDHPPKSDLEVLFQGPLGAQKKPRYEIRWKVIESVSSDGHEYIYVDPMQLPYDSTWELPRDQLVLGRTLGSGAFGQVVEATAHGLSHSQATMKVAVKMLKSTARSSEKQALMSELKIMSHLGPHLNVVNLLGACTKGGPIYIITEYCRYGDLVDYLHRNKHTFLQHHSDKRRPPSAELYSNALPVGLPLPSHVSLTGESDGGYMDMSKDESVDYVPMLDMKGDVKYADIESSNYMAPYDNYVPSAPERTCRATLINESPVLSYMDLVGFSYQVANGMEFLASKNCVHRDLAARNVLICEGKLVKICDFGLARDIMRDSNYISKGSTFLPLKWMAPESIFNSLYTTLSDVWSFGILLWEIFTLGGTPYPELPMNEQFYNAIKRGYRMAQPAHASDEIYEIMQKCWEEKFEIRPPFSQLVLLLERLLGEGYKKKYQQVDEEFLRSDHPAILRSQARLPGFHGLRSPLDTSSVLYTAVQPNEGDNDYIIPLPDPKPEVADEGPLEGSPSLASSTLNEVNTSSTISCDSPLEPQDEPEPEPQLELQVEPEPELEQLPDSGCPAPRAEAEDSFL
T1 sequence (P16234 550-1089 T674I): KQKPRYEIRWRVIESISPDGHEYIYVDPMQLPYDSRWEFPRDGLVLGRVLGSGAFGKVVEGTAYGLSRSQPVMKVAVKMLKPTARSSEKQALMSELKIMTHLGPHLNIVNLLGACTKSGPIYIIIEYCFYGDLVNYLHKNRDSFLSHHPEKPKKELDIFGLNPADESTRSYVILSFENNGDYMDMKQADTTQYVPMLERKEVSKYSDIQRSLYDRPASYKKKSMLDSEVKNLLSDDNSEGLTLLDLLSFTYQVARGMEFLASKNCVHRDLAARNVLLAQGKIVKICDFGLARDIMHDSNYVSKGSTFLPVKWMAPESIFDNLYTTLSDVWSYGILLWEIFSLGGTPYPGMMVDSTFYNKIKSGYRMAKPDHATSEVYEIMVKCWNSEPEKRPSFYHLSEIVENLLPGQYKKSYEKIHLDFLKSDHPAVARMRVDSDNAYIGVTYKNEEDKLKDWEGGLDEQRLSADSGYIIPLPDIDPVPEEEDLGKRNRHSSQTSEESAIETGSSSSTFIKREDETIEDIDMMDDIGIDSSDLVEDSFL

With `CCn1cc2ncc(N[C@@H](C)c3cc(NC(=O)c4cnc(N5CCN(C)CC5)c(Cl)c4)ccc3F)nc2n1` [Compound 456, (S)-5-chloro-N-(3-(1-((2-ethyl-2H-pyrazolo[3,4-b]pyrazin-6-yl)amino)ethyl)-4-fluorophenyl)-6-(4-methylpiperazin-1-yl) nicotinamide], the IC50 in experiment [1] and in experiment [2] was below 300 nM in each case.

`CCn1cc2ncc(N[C@@H](C)c3cc(NC(=O)c4ccc(CN5CCN(C)CC5)c(C)c4)ccc3F)nc2n1` [Compound 457, (S)-N-(3-(1-((2-ethyl-2H-pvrazolo[3,4-b]pyrazin-6-yl)amino)ethyl)-4-fluorophenyl)-3 methyl-4-((4-methylpiperazin-1-yl)methyl)benzamide]: the IC50 in experiment [1] and in experiment [2] was below 300 nM in each case.

For the compound `CCn1cc2ncc(N[C@@H](C)c3cc(NC(=O)c4ccc(C(F)(F)F)nc4)ccc3Cl)nc2n1` [Compound 458, (S)-N-(4-chloro-3-(1-((2-ethyl-2H-pyrazolo[3,4-b]pyrazin-6-yl)amino)ethyl)phenyl)-6-(trifluoromethyl)nicotinamide], the IC50 in experiment [1] and in experiment [2] was below 300 nM each time.

`CCn1cc2ncc(N[C@@H](C)c3cc(NC(=O)c4ccc(C(F)(F)F)nc4)ccc3C(F)(F)F)nc2n1` [Compound 459, (S)-N-(3-(1-((2-ethyl-2H-pyrazolo[3,4-b]pyrazin-6-yl)amino)ethyl)-4-(trifluoromethyl)phenyl)-6-(trifluoromethyl) nicotinamide]: the IC50 in experiment [1] and in experiment [2] was at least 1000 nM each time.

In the case of `CCn1cc2ncc(N[C@@H](C)c3cccc(NC(=O)c4ccc(CN5CCC6(COC6)C5)c(C)c4)c3)nc2n1` [Compound 460, (S)-4-((2-oxa-6-azaspiro[3.4]octan-6-yl)methyl)-N-(3-(1-((2-ethyl-2H-pyrazolo[3,4-b]pyrazin-6-yl)amino)ethyl)phenyl)-3-methylbenzamide], the IC50 in experiment [1] and in experiment [2] was below 300 nM in each case.

Consider `CCn1cc2ncc(N[C@@H](C)c3cccc(NC(=O)c4ccc(CN5CC6(C5)CC6(F)F)c(C)c4)c3)nc2n1` [Compound 461], for which the IC50 in experiment [1] was below 300 nM; in experiment [2], 300 to 1000 nM.

`CCn1cc2ncc(N[C@@H](C)c3cccc(NC(=O)c4ccc(CN5CCN(C6CC6)CC5)c(C)c4)c3)nc2n1` [Compound 462, (S)-4-((4-cyclopropylpiperazin-1-yl)methyl)-N-(3-(1-((2-ethyl-2H-pyrazolo[3,4-b]pyrazin-6-yl)amino)ethyl)phenyl)-3-methylbenzamide]: the IC50 in experiment [1] and in experiment [2] was below 300 nM in each case.

As to `Cc1cncc(C(=O)Nc2cccc([C@H](C)Nc3cnc4cn(-c5cccnc5)nc4n3)c2)c1` [Compound 463, (S)-5-methyl-N-(3-(1-((2-(pyridin-3-yl)-2H-pyrazolo[3,4-b]pyrazin-6-yl)amino)ethyl)phenyl)nicotinamide], the IC50 in experiment [1] and in experiment [2] was below 300 nM in each case.

On to `CCn1cc2ncc(N[C@@H](C)c3cccc(NC(=O)c4ccc(CN5CC[C@@H](F)C5)c(Cl)c4)c3)nc2n1` [Compound 464, 3-chloro-N-(3-((S)-1-((2-ethyl-2H-pyrazolo[3,4-b]pyrazin-6-yl)amino)ethyl)phenyl)-4-(((R)-3-fluoropyrrolidin-1-yl)methyl) benzamide], for which the IC50 in experiment [1] and in experiment [2] was below 300 nM throughout.

Regarding `CCn1cc2ncc(N[C@@H](C)c3cccc(NC(=O)c4ccc(C(=O)N5CC[C@@H](N)C5)c(C)c4)c3)nc2n1` [Compound 465, 4-((R)-3-aminopyrrolidine-1-carbonyl)-N-(3-((S)-1-((2-ethyl-2H-pyrazolo[3,4-b]pyrazin-6-yl)amino)ethyl)phenyl)-3-methylbenzamide], the IC50 in experiment [1] is below 300 nM; in experiment [2] it was at least 1000 nM.

Regarding `CCn1cc2ncc(N[C@@H](C)c3cccc(NC(=O)c4ccc(C(=O)N5CCN(C)CC5)c(Cl)c4)c3)nc2n1` [Compound 466, (S)-3-chloro-N-(3-(1-((2-ethyl-2H-pyrazolo[3,4-b]pyrazin-6-yl)amino)ethyl)phenyl)-4-(4-methylpiperazine-1-carbonyl) benzamide], the IC50 is below 300 nM in experiment [1] and 300 to 1000 nM in experiment [2].

Consider `CCn1cc2ncc(N[C@@H](C)c3cccc(NC(=O)c4ccc(C(=O)N5CC[C@@H](N)C5)c(Cl)c4)c3)nc2n1` [Compound 467, 4-((R)-3-aminopyrrolidine-1-carbonyl)-3-chloro-N-(3-((5)-1-((2-ethyl-2H-pyrazolo[3,4-b]pyrazin-6-yl)amino)ethyl)phenyl)benzamide], for which the IC50 in experiment [1] was below 300 nM; in experiment [2] it was at least 1000 nM.

Consider `CCn1cc2ncc(N[C@@H](C)c3cccc(NC(=O)c4ccc(CN5CC6(COC6)C5)c(F)c4)c3)nc2n1` [Compound 468, (S)-4-((2-oxa-6-azaspiro[3.3]heptan-6-yl)methyl)-N-(3-(1-((2-ethyl-2H-pyrazolo[3,4-b]pyrazin-6-yl)amino)ethyl)phenyl)-3-fluorobenzamide], for which the IC50 in experiment [1] is 300 to 1000 nM; in experiment [2], at least 1000 nM.

Take `CCn1cc2ncc(N[C@@H](C)c3cccc(NC(=O)c4ccc(CN5CC[C@@H](F)C5)c(C)c4)c3)nc2n1` [Compound 469, N-(3-((S)-1-((2-ethyl-2H-pyrazolo[3,4-b]pyrazin-6-yl)amino)ethyl)phenyl)-4-(((R)-3-fluoropyrrolidin-1-yl)methyl)-3-methylbenzamide]: the IC50 in experiment [1] and in experiment [2] was below 300 nM in each case.

With `CCn1cc2ncc(N[C@@H](C)c3cc(NC(=O)c4ccc(CN5CCCC5)c(C)c4)ccc3F)nc2n1` [Compound 470, (S)-N-(3-(1-((2-ethyl-2H-pyrazolo[3,4-b]pyrazin-6-yl)amino)ethyl)-4-fluorophenyl)-3-methyl-4-(pyrrolidin-1-ylmethyl)benzamide], the IC50 in experiment [1] and in experiment [2] was below 300 nM each time.

For the compound `CCn1cc2ncc(N[C@@H](C)c3cccc(NC(=O)c4ccc(CN5CC[C@H](O)C5)c(C)c4)c3)nc2n1` [Compound 471, N-(3-((S)-1-((2-ethyl-2H-pyrazolo[3,4-b]pyrazin-6-yl)amino)ethyl)phenyl)-4-(((S)-3-hydroxypyrrolidin-1-yl)methyl)-3-methylbenzamide], the IC50 in experiment [1] was 300 to 1000 nM; in experiment [2], at least 1000 nM.

As for `CCn1cc2ncc(N[C@@H](C)c3cccc(NC(=O)c4ccc(C(=O)N5CCN(C)CC5)c(C)c4)c3)nc2n1` [Compound 472, (S)-N-(3-(1-((2-ethyl-2H-pyrazolo[3,4-b]pyrazin-6-yl)amino)ethyl)phenyl)-3-methyl-4-(4-methylpiperazine-1-carbonyl)benzamide], the IC50 in experiment [1] was below 300 nM; in experiment [2], 300 to 1000 nM.

As for `CCn1cc2ncc(N[C@@H](C)c3cccc(NC(=O)c4ccc(CN5CC6(CN(C)C6)C5)c(C)c4)c3)nc2n1` [Compound 473, (S)-N-(3-(1-((2-ethyl-2H-pyrazolo[3,4-b]pyrazin-6-yl)amino)ethyl)phenyl)-3-methyl-4-((6-methyl-2,6-diazaspiro[3.3]heptan-2-yl)methyl)benzamide], the 50% inhibitory concentration (IC50) in experiment [1] and in experiment [2] was below 300 nM in each case.

For the compound `CCn1cc2ncc(N[C@@H](C)c3cccc(NC(=O)c4ccc(CN5CCCC(F)(F)C5)c(C)c4)c3)nc2n1` [Compound 474, (S)-4-((3,3-difluoropiperidin-1-yl)methyl)-N-(3-(1-((2-ethyl-2H-pyrazolo[3,4-b]pyrazin-6-yl)amino)ethyl)phenyl)-3-methylbenzamide], the IC50 in experiment [1] and in experiment [2] was below 300 nM throughout.

As for `CCn1cc2ncc(N[C@@H](C)c3cccc(NC(=O)c4ccc(CN5[C@@H]6CC[C@H]5CN(C)C6)c(C)c4)c3)nc2n1` [Compound 475, N-(3-((S)-1-((2-ethyl-2H-pyrazolo[3,4-b]pyrazin-6-yl)amino)ethyl)phenyl)-3-methyl-4-(((1R,5S)-3-methyl-3,8-diazabicyclo[3.2.1]octan-8-yl)methyl)benzamide], the IC50 in experiment [1] and in experiment [2] was below 300 nM each time.

Take `CCn1cc2ncc(N[C@@H](C)c3cccc(NC(=O)c4ccc(CN5CCC(F)(F)CC5)c(C)c4)c3)nc2n1` [Compound 476, (S)-4-((4,4-difluoropiperidin-1-yl)methyl)-N-(3-(1-((2-ethyl-2H-pyrazolo[3,4-b]pyrazin-6-yl)amino)ethyl)phenyl)-3-methylbenzamide]: the IC50 is below 300 nM in experiment [1] and 300 to 1000 nM in experiment [2].

In the case of `CCn1cc2ncc(N[C@@H](C)c3cccc(NC(=O)c4ccc(CN5CC6CC6C5)c(C)c4)c3)nc2n1` (some centres unmarked) [Compound 477, 4-((3-azabicyclo[3.1.0]hexan-3-yl)methyl)-N-(3-((5)-1-((2-ethyl-2H-pyrazolo[3,4-b]pyrazin-6-yl)amino)ethyl)phenyl)-3-methylbenzamide], the IC50 in experiment [1] and in experiment [2] was below 300 nM in each case.

With `CCn1cc2ncc(N[C@@H](C)c3cccc(NC(=O)c4ccc(CN5C[C@@H](C)O[C@@H](C)C5)c(C)c4)c3)nc2n1` [Compound 478, 4-(((2S,6R)-2,6-dimethylmorpholino)methyl)-N-(3-((S)-1-((2-ethyl-2H-pyrazolo[3,4-b]pyrazin-6-yl)amino)ethyl)phenyl)-3-methylbenzamide], the figures for the IC50 in experiment [1] and in experiment [2] were below 300 nM and 300 to 1000 nM, respectively.

In the case of `CCn1cc2ncc(N[C@@H](C)c3cccc(NC(=O)c4ccc(CN5CCN(C)C(=O)C5)c(C)c4)c3)nc2n1` [Compound 479, (S)-N-(3-(1-((2-ethyl-2H-pyrazolo[3,4-b]pyrazin-6-yl)amino)ethyl)phenyl)-3-methyl-4-((4-methyl-3-oxopiperazin-1-yl)methyl)benzamide], the IC50 in experiment [1] and in experiment [2] was below 300 nM throughout.

As to `CCn1cc2ncc(N[C@@H](C)c3cccc(NC(=O)c4ccc(CN5CCC6(CC5)COC6)c(C)c4)c3)nc2n1` [Compound 480, (S)-4-((2-oxa-7-azaspiro[3.5]nonan-7-yl)methyl)-N-(3-(1-((2-ethyl-2H-pyrazolo[3,4-b]pyrazin-6-yl)amino)ethyl)phenyl)-3-methylbenzamide], the IC50 in experiment [1] is below 300 nM; in experiment [2] it was 300 to 1000 nM.

The values are drawn from patent US20230102554A1 (GB002, INC., priority 2019, published 2023).
